Consider 1 compound from patent US20130273138A1, “TRANSDERMAL FORMULATIONS OF GERANYLGERANYLACETONE” (COYOTE PHARMACEUTICALS, INC., priority 2012, published 2013).

SMILES strings stand for the structures.

The data set can be described thus: Dissolution of GGA patch (HPLC refractive index detector). Conditions: 3.2 cm×3 cm patch, 10 mg GGA; 24 hour time point; acetonitrile as the media. It is filed as physicochemical. As to the method: The assembly was then clipped to two pins to sink the membrane-patch assembly to the bottom of the vessel and remains at the fixed position.
Two chromatograms (one standard of 0.05 mg/mL and one sample taken at 24 hour time point) in FIGS. 1A and 1B illustrate the dissolution results. Nearly all GGA in the membrane was released according to this specific dissolution setting (i.e., acetonitrile as the media).

`CC(=O)CC/C=C(\C)CC/C=C(\C)CC/C=C(\C)CCC=C(C)C` [GGA, Geranylgeranylacetone]: the “GGA released from patch (dissolution)” value was “Nearly all”.
